In patent US9115101B2 (Genentech, Inc., priority 2012, dated 2015):

Each compound was assayed against T1, RORc ligand binding domain (Homo sapiens, UniProt P51449) (assay: In Vitro RORc Ligand Binding Assay (25-[3H]hydroxycholesterol radioligand filtration)). Conditions: read-out: RORc IC50.
T1 construct: host or cells: E. coli
T1 sequence (P51449 269-508 limits assumed): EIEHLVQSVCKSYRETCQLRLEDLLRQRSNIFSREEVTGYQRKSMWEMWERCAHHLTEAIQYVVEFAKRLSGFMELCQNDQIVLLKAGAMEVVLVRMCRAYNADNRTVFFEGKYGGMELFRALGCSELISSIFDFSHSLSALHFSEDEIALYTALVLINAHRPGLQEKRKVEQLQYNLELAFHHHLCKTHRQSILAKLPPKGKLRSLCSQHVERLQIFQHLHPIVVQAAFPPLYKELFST
Work on `CC(=O)N1CCN(c2ccc(CN3[C@@H](C)CCC(c4ccccc4)S3(=O)=O)c(F)c2)[C@@H](C(=O)O)C1` (stereo partly drawn) [Example 434, (R)-4-Acetyl-1-[3-fluoro-4-((3S)-methyl-1,1-dioxo-6-phenyl-[1,2]thiazinan-2-ylmethyl)-phenyl]-piperazine-2-carboxylic acid] yielded an IC50 of 1130 nM. `CNC(=O)[C@H]1CN(C(C)=O)CCN1c1ccc(CN2[C@@H](C)CCC(c3ccccc3)S2(=O)=O)c(F)c1` (stereo partly drawn) [Example 435, (R)-4-Acetyl-1-[3-fluoro-4-((3S)-methyl-1,1-dioxo-6-phenyl-[1,2]thiazinan-2-ylmethyl)-phenyl]-piperazine-2-carboxylic acid methylamide] gave an IC50 of 244 nM. With `C[C@H]1CCC(c2ccccc2)S(=O)(=O)N1Cc1ccc(OCC2CCOCC2)cc1` (stereo partly drawn) [Example 436, (3S)-Methyl-6-phenyl-2-[4-(tetrahydro-pyran-4-ylmethoxy)-benzyl]-[1,2]thiazinane 1,1-dioxide] the IC50 was 86 nM. In the case of `CC(Oc1ccc(CN2[C@@H](C)CCC(c3ccccc3)S2(=O)=O)cc1)C1CCOCC1` (stereo partly drawn) [Example 437, (3S)-Methyl-6-phenyl-2-{4-[1-(tetrahydro-pyran-4-yl)-ethoxy]-benzyl}-[1,2]thiazinane 1,1-dioxide], the IC50 is reported as 48 nM. For `C[C@H]1CCC(c2ccccc2)S(=O)(=O)N1Cc1ccc(OCCN2CCOCC2)cc1` (stereo partly drawn) [Example 438, 4-{2-[4-((3S)-Methyl-1,1-dioxo-6-phenyl-[1,2]thiazinan-2-ylmethyl)-phenoxy]-ethyl}-morpholine], the IC50 was 665 nM. `C[C@H]1CCC(c2ccccc2)S(=O)(=O)N1Cc1ccc(OCCN2CCCC2=O)cc1` (stereo partly drawn) [Example 439, 1-{2-[4-((3S)-Methyl-1,1-dioxo-6-phenyl-[1,2]thiazinan-2-ylmethyl)-phenoxy]-ethyl}-pyrrolidin-2-one] was tested, and the IC50 was 325 nM. `C[C@H]1CCC(c2ccccc2)S(=O)(=O)N1Cc1ccc(N2C[C@@H]3[C@H](C2)[C@H]3n2cnnc2)cc1F` (stereo partly drawn) [Example 440, (1R,5S,6S)-3-[3-Fluoro-4-((3S)-methyl-1,1-dioxo-6-phenyl-[1,2]thiazinan-2-ylmethyl)-phenyl]-6-[1,2,4]triazol-4-yl-3-aza-bicyclo[3.1.0]hexane] gave an IC50 of 12 nM. With `C[C@H]1CCC(c2ccccc2)S(=O)(=O)N1Cc1ccc(N2CCN(c3cnccn3)CC2)cc1F` (stereo partly drawn) [Example 441, 4-[3-Fluoro-4-((3S)-methyl-1,1-dioxo-6-phenyl-[1,2]thiazinan-2-ylmethyl)-phenyl]-3,4,5,6-tetrahydro-2H-[1,2′]bipyrazinyl] the IC50 was 171 nM. `C[C@H]1CCC(c2ccccc2)S(=O)(=O)N1Cc1ccc(N2CCN(c3ncncn3)CC2)cc1F` (stereo partly drawn) [Example 442, 2-{4-[3-Fluoro-4-((3S)-methyl-1,1-dioxo-6-phenyl-[1,2]thiazinan-2-ylmethyl)-phenyl]-piperazin-1-yl}-[1,3,5]triazine] was tested, and the IC50 was 37 nM. Compound `C[C@H]1CCC(c2ccccc2)S(=O)(=O)N1Cc1ccc(NCC2CCOCC2)cc1F` (stereo partly drawn) [Example 445, [3-Fluoro-4-((3S)-methyl-1,1-dioxo-6-phenyl-[1,2]thiazinan-2-ylmethyl)-phenyl]-(tetrahydro-pyran-4-ylmethyl)-amine] has an IC50 of 25 nM. Work on `C[C@H]1CCC(c2ccccc2)S(=O)(=O)N1Cc1ccc(OC2CCNC2=O)cc1` (stereo partly drawn) [Example 446, 3-[4-((3S)-Methyl-1,1-dioxo-6-phenyl-[1,2]thiazinan-2-ylmethyl)-phenoxy]-pyrrolidin-2-one] yielded an IC50 of 1500 nM. Compound `C[C@H]1CCC(c2ccccc2)S(=O)(=O)N1Cc1ccc(OC2CCOC2)cc1` (stereo partly drawn) [Example 447, (3S)-Methyl-6-phenyl-2-[4-(tetrahydro-furan-3-yloxy)-benzyl]-[1,2]thiazinane 1,1-dioxide] has an IC50 of 268 nM. In the case of `C[C@H]1CCC(c2ccccc2)S(=O)(=O)N1Cc1ccc(OCC2(C)COC2)cc1` (stereo partly drawn) [Example 448, (3S)-Methyl-2-[4-(3-methyl-oxetan-3-ylmethoxy)-benzyl]-6-phenyl-[1,2]thiazinane 1,1-dioxide], the IC50 is reported as 656 nM. With `C[C@H]1CCC(c2ccccc2)S(=O)(=O)N1Cc1ccc(OC2CCC(=O)NC2)cc1` (stereo partly drawn) [Example 449, 5-[4-((3S)-Methyl-1,1-dioxo-6-phenyl-[1,2]thiazinan-2-ylmethyl)-phenoxy]-piperidin-2-one] the IC50 was 852 nM. `CC1CN(S(C)(=O)=O)CCC1Nc1ccc(CN2[C@@H](C)CCC(c3ccccc3)S2(=O)=O)c(F)c1` (stereo partly drawn) [Example 451, [3-Fluoro-4-((3S)-methyl-1,1-dioxo-6-phenyl-[1,2]thiazinan-2-ylmethyl)-phenyl]-(1-methanesulfonyl-3-methyl-piperidin-4-yl)-amine] was tested, and the IC50 was 12 nM. `CC1CN(S(C)(=O)=O)CCC1Nc1ccc(CN2[C@@H](C)CCC(c3ccccc3)S2(=O)=O)c(F)c1` (stereo partly drawn) [Example 453, [3-Fluoro-4-((3S)-methyl-1,1-dioxo-6-phenyl-[1,2]thiazinan-2-ylmethyl)-phenyl]-(1-methanesulfonyl-3-methyl-piperidin-4-yl)-amine] gave an IC50 of 9 nM. `C[C@H]1CCC(c2ccccc2)S(=O)(=O)N1Cc1ccc(NC(=O)CC2CCOCC2)cc1F` (stereo partly drawn) [Example 455, N-[3-Fluoro-4-((3S)-methyl-1,1-dioxo-6-phenyl-[1,2]thiazinan-2-ylmethyl)-phenyl]-2-(tetrahydro-pyran-4-yl)-acetamide] showed an IC50 of 123 nM. `CCOC(=O)N1CCC(C(=O)Nc2ccc(CN3[C@@H](C)CCC(c4ccccc4)S3(=O)=O)c(F)c2)CC1` (stereo partly drawn) [Example 456, 4-[3-Fluoro-4-((3S)-methyl-1,1-dioxo-6-phenyl-[1,2]thiazinan-2-ylmethyl)-phenylcarbamoyl]-piperidine-1-carboxylic acid ethyl ester] showed an IC50 of 148 nM. `CC(=O)N1CCC(C(=O)Nc2ccc(CN3[C@@H](C)CCC(c4ccccc4)S3(=O)=O)c(F)c2)CC1` (stereo partly drawn) [Example 457, 1-Acetyl-piperidine-4-carboxylic acid [3-fluoro-4-((3S)-methyl-1,1-dioxo-6-phenyl-[1,2]thiazinan-2-ylmethyl)-phenyl]-amide] gave an IC50 of 437 nM. `C[C@H]1CCC(c2ccccc2)S(=O)(=O)N1Cc1ccc(NC(=O)C2CN(S(C)(=O)=O)C2)cc1F` (stereo partly drawn) [Example 458, 1-Methanesulfonyl-azetidine-3-carboxylic acid [3-fluoro-4-((3S)-methyl-1,1-dioxo-6-phenyl-[1,2]thiazinan-2-ylmethyl)-phenyl]-amide] showed an IC50 of 98 nM. For `C[C@H]1CCC(c2ccccc2)S(=O)(=O)N1Cc1ccc(NC(=O)C2CCN(S(C)(=O)=O)CC2)cc1F` (stereo partly drawn) [Example 459, 1-Methanesulfonyl-piperidine-4-carboxylic acid [3-fluoro-4-((3S)-methyl-1,1-dioxo-6-phenyl-[1,2]thiazinan-2-ylmethyl)-phenyl]-amide], the IC50 was 74 nM.
